Assay results reported in patent publication US20250313560A1, “Novel bicyclic benzylamido pyridine derivatives as SOS1 inhibitors” (Boehringer Ingelheim International GmbH, priority 2024, published 2025).
Read-outs that look alike come from different tables or passages of the source.

What was measured:
P450 3A4 = P450 3A4 (Homo sapiens (Human), UniProt P08684); test: Cytochrome P450 isoenzyme inhibition assay (P450 3A4, midazolam); assay type: in vitro ADME; conditions: human liver microsomes, Midazolam as substrate; read-out: CYP3A4 inhibition IC50
Procedure, shortened: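 Midazolam (5 μM) hydroxylation by human liver microsomes (0.1 mg/ml) in 0.1 M TRIS with 5 mM MgCl2, started with 1 mM NADPH. Five compound concentrations in duplicate, e.g. top 50 μM with 1:4 dilutions. Metabolite quantified by LC-MS/MS against internal standard; IC50 from inhibition relative to no-compound control.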

CYP3A4 = CYP3A4 (Homo sapiens (Human), UniProt P08684); test: Mechanism-based inhibition of CYP3A4 assay (MBI 3A4); assay type: in vitro ADME; conditions: human liver microsomes, midazolam substrate, hydroxy-midazolam formation after 30 min preincubation relative to 0 min; for inhibition at 30 min: human, probe midazolam 15 μM (hydroxy-midazolam formation), read-out: MBI inhibition % ctrl. [%] with MDZ
Procedure, shortened: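 Human liver microsomes (0.2 mg/mL) were preincubated with compound at 0, 5 or 25 μM plus 1 mM NADPH for 0, 10 or 30 min, then diluted 1:10 and incubated 10 min with 15 μM midazolam. Hydroxy-midazolam was measured by LC/MS-MS; readout is formation after 30 min relative to 0 min preincubation (%).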

SOS1 and KRAS G12D = SOS1 and KRAS G12D (Homo sapiens (Human), UniProt Q07889); test: KRAS::SOS1 AlphaScreen binding assay (KRAS G12D); conditions: average of at least two measurements
[1] = tested on: ERK phosphorylation in NCI-H358 SOS2 KO cells (KRAS G12C); test: Erk phosphorylation assay; assay type: cell-based, human; conditions: EGF stimulated, average of at least two measurements, read-out: pERK IC50
Procedure, shortened: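 NCI-H358 SOS2 KO cells (KRAS G12C) in DMEM/2% FBS were pretreated 50 min with compound, then stimulated with EGF (approx. 8 ng/mL) for 10-15 min. pERK1/2 (Thr202/Tyr204) measured in lysates by AlphaLISA SureFire; IC50 from variable-slope fit, averaged over at least two measurements.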

SOS1 and KRAS G12C = SOS1 and KRAS G12C (Homo sapiens (Human), UniProt Q07889); test: KRAS::SOS1 AlphaScreen binding assay (KRAS G12C); conditions: average of at least two measurements
human hepatocytes = test: Metabolic stability in human hepatocytes; conditions: 1 μM test compound, 50% human serum, percentage of liver blood flow
Protocol: The metabolic degradation of a test compound is performed with hepatocytes in suspension. After recovery from cryopreservation, human hepatocytes are diluted in Dulbecco's modified eagle medium (supplemented with 3.5 μg glucagon/500 mL, 2.5 mg insulin/500 mL, 3.75 mg hydrocortisone/500 mL, 50% human serum) to obtain a final cell density of 1.0×10^6 cells/mL. Following a preincubation in a cell culture incubator (37° C., 10% CO2), test compound dissolved in DMSO is mixed with the hepatocyte suspension, resulting in a final test compound concentration of 1 μM and a final DMSO concentration of 0.05%.
The cell suspension is incubated at 37° C. (cell culture incubator, horizontal shaker) and samples are removed from the incubation after 0, 0.5, 1, 2, 4 and 6 hours. Samples are quenched with acetonitrile (containing internal standard) and pelleted by centrifugation. The supernatant is transferred to a deep-well plate and prepared for analysis of decline of parent compound by HPLC-MS/MS.
The percentage of remaining test compound is calculated using the peak area ratio (test compound/internal standard) of each incubation time point relative to the time point 0 peak area ratio. The log-transformed data are plotted versus incubation time, and the absolute value of the slope obtained by linear regression analysis is used to estimate in vitro half-life (T1/2).
CL_[sequence]_IN VIVO[mL/min/kg]=(CL_[sequence][μL/min/10^6cells]×hepatocellularity[10^6cells/g liver]×liver factor[g/kg body weight])/1000
Hepatic in vivo blood clearance (CL) is predicted according to the well-stirred liver model considering an average liver blood flow (QH) of 20.7 mL/min/kg:
CL[mL/min/kg]=CL_[sequence]_IN VIVO[mL/min/kg]×hepatic blood flow[mL/min/kg]/(CL_[sequence]_IN VIVO[mL/min/kg]+hepatic blood flow[mL/min/kg])
Results are expressed as percentage of hepatic blood flow:
QH[%]=CL[mL/min/kg]/hepatic blood flow[mL/min/kg])

[2] = Homo sapiens, NCI-H358, NCI-H358 SOS2 KO cells

P450 3A4, sequence (P08684 whole entry): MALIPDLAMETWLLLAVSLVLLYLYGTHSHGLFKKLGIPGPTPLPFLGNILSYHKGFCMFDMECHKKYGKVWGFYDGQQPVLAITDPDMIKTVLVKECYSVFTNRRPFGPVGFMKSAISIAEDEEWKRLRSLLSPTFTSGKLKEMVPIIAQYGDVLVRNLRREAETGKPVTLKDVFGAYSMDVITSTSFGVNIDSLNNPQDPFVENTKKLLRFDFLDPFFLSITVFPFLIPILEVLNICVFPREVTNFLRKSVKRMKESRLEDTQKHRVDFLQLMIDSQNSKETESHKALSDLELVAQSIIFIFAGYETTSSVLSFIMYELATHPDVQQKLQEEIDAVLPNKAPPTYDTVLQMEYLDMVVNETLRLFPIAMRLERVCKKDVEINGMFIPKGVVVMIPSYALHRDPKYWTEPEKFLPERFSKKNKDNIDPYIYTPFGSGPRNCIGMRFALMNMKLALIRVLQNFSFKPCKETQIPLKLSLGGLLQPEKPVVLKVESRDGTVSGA
CYP3A4, sequence (P08684 whole entry): as above
SOS1 and KRAS G12C, sequence (Q07889 564-1049, stated change not applied): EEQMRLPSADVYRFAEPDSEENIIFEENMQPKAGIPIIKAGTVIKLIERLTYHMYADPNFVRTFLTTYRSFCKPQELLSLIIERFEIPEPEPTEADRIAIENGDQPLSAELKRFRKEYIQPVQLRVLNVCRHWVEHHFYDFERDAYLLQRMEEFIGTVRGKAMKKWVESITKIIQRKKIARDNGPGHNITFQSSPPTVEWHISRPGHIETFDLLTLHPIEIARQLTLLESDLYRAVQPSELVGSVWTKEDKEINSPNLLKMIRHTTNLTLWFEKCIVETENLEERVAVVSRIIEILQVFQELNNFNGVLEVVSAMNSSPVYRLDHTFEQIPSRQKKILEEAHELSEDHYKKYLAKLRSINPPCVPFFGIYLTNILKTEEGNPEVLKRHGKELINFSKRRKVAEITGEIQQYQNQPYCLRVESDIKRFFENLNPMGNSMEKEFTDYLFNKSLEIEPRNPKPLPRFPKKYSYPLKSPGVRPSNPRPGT
SOS1 and KRAS G12D, sequence (Q07889 564-1049, stated change not applied): as above

SMILES | IC50 (P450 3A4) [µM] | inhibition at 30 min (CYP3A4) [%] | IC50 (SOS1 and KRAS G12D) [nM] | IC50 [1, 2] [nM] | IC50 (SOS1 and KRAS G12C) [nM] | Hepatic clearance - QH[%] in human hepatocytes (human hepatocytes) [%] | IC50 ([1]; NCI-H358 SOS2 KO cells) [nM] | MBI inhibition % ctrl. [%] with MDZ (CYP3A4) [%]
C[C@@H](NC(=O)c1cc(N2CCC(N3C[C@H](O)C4(CC4)C3)CC2)c2ncnn2c1)c1cccc(C(F)(F)F)c1F [Example E28] | > 50 | 90 | 70 | 186 | 70 | 23 |  | 
C[C@@H](NC(=O)c1cc(N2CCC3CCNC3C2)c2ncnn2c1)c1cccc(C(F)(F)F)c1F (single isomer, unassigned) [Example cis-E52b] | > 50 | 98 | 70 |  | 71 | 14 | 40 | 
C[C@@H](NC(=O)c1cc(N2CCC(N3CCC[C@H]3CO)CC2)c2ncnn2c1)c1cccc(C(F)F)c1F [Example E6] | > 50 | 102 | 37 | 247 | 36 | 16 |  | 
C[C@@H](NC(=O)c1cc(N2CCC(NC3COCC3O)CC2)c2ncnn2c1)c1cccc(C(F)F)c1F (single isomer, unassigned) [Example cis-E16b] | > 50 |  | 19 |  | 26 | 24 | 316 | 87
C[C@@H](NC(=O)c1cc([C@H]2CC[C@H](N3CCC[C@@H](O)C3)CC2)c2ncnn2c1)c1cccc(C(F)F)c1F [Example E58] | > 50 | 96 | 32 | 122 | 32 | 15 |  | 
C[C@@H]1[C@H](O)CN1C1CCN(c2cc(C(=O)N[C@H](C)c3cccc(C(F)(F)F)c3F)cn3ncnc23)CC1 [Example E25] | > 50 | 91 | 53 | 282 | 63 | 17 |  | 
C[C@@H](NC(=O)c1cc(N2CCC(O)(C3CCCN3)CC2)c2ncnn2c1)c1cccc(C(F)F)c1F (single isomer, unassigned) [Example E38a] | > 50 | 94 | 45 | 112 | 66 | 10 |  | 
C[C@@H](NC(=O)c1cc([C@]2(O)CC[C@@H](N3CC[C@H](F)C3)CC2)c2ncnn2c1)c1cccc(C(F)F)c1F [Example E66] | > 50 | 81 | 79 | 152 | 74 | 32 |  | 
C[C@H](O)CNC1CCN(c2cc(C(=O)N[C@H](C)c3cccc(C(F)(F)F)c3F)cn3ncnc23)CC1 [Example E40] | > 50 | 75 | 53 | 277 | 50 | 22 |  | 
C[C@@H](NC(=O)c1cc(N2CCC(N3CCCC3)CC2)c2ncnn2c1)c1cccc(C(F)(F)F)c1F [Example E48] | > 50 | 92 | 60 | 82 | 69 | 27 |  | 
C[C@@H](NC(=O)c1cc(N2CCC(N3CCCC(C)(O)C3)CC2)c2ncnn2c1)c1cccc(C(F)(F)F)c1F (single isomer, unassigned) [Example E47b] | > 50 |  | 45 |  | 41 | 28 | 198 | 88
C[C@@H](NC(=O)c1cc(N2CCC3(CCCN3C)CC2)c2ncnn2c1)c1cccc(C(F)F)c1F [Example E20] | > 50 | 94 | 33 | 146 | 44 | 19 |  | 
C[C@@H](NC(=O)c1cc(C2=CCC(N3CCC[C@H](O)C3)CC2)c2nncn2c1)c1cccc(C(F)F)c1F (stereo partly drawn) [Example E82] | > 50 | 92 | 15 | 90 | 20 | 5 |  | 
Cc1nc2c(N3CCC4(CCCN4)CC3)cc(C(=O)N[C@H](C)c3cccc(C(F)(F)F)c3F)cn2n1 [Example E78] | > 50 | 103 | 41 | 223 | 43 | 5 |  | 
C[C@@H](NC(=O)c1cc(N2CCC(N3C[C@H](O)C4(CC4)C3)CC2)c2ncnn2c1)c1cccc(C(F)F)c1F [Example E3] | > 50 | 94 | 50 | 155 | 59 | 24 |  | 
CO[C@@H]1CCN(C2CCN(c3cc(C(=O)N[C@H](C)c4cccc(C(F)(F)F)c4F)cn4cnnc34)CC2)C1 [Example E75] | > 50 | 99 | 60 | 408 | 65 | 9 |  | 
C[C@@H](NC(=O)c1cc(N2CCC3(CCCCN3C)CC2)c2ncnn2c1)c1cccc(C(F)(F)F)c1F [Example E46] | > 50 | 98 | 31 | 162 | 34 | 9 |  | 
Cc1nc2c([C@H]3CC[C@H](N4CCCC4)CC3)cc(C(=O)N[C@H](C)c3cccc(C(F)F)c3F)cn2n1 [Example E84] | > 50 | 103 | 37 | 174 | 38 | 10 |  | 
C[C@@H](NC(=O)c1cc([C@]2(O)CC[C@@H](N3CC[C@@H](F)C3)CC2)c2ncnn2c1)c1cccc(C(F)F)c1F [Example E65] | > 50 | 102 | 93 | 165 | 90 | 38 |  | 
C[C@@H](NC(=O)c1cc(N2CCC3(CCCN3C)CC2)c2nncn2c1)c1cccc(C(F)(F)F)c1F [Example E77] | > 50 | 88 | 22 | 202 | 27 | <4 |  | 
C[C@@H](NC(=O)c1cc(N2CCC(N3CC[C@@H](O)C3)CC2)c2ncnn2c1)c1cccc(C(F)F)c1F [Example E2] | > 50 | 95 | 46 | 92 | 55 | 15 |  | 
